Results on 63 compounds are retold here after patent US20230399319A1, “Acylsulfamide Compound and Pharmaceutical Use Therefor” (Japan Tobacco Inc., priority 2019, published 2023).

Several values for one entry are separate records, joined by “and”; a condition that tells them apart may be missing. Identical values can stand only once. Like-named read-outs stand apart in the source and are kept apart here.

By IC50 is commonly meant the midpoint of a concentration-inhibition curve. A higher IC50 goes with a need for much substance. The inhibition is how much of the control response was suppressed.

This test addresses NLRP3 inflammasome (Homo sapiens (Human), UniProt Q96P20). Nature of the test: Evaluation of NLRP3 inflammasome inhibitory activity (inhibition of IL-1β production in THP1-Null cells, LPS/Nigericin). Particulars: for inhibition at 3 µM: read-out: % inhibition at 3 μM; for inhibition at 30 µM: read-out: Inhibition at 30 μM.
Where [1] appears, read: inhibition of IL-1β production in THP1-Null cells.
Setting [2] is: IL-1β production in THP1-Null cells, PMA/LPS primed, Nigericin 7.5 μmol/L.

Chain of NLRP3 inflammasome (Q96P20 whole entry): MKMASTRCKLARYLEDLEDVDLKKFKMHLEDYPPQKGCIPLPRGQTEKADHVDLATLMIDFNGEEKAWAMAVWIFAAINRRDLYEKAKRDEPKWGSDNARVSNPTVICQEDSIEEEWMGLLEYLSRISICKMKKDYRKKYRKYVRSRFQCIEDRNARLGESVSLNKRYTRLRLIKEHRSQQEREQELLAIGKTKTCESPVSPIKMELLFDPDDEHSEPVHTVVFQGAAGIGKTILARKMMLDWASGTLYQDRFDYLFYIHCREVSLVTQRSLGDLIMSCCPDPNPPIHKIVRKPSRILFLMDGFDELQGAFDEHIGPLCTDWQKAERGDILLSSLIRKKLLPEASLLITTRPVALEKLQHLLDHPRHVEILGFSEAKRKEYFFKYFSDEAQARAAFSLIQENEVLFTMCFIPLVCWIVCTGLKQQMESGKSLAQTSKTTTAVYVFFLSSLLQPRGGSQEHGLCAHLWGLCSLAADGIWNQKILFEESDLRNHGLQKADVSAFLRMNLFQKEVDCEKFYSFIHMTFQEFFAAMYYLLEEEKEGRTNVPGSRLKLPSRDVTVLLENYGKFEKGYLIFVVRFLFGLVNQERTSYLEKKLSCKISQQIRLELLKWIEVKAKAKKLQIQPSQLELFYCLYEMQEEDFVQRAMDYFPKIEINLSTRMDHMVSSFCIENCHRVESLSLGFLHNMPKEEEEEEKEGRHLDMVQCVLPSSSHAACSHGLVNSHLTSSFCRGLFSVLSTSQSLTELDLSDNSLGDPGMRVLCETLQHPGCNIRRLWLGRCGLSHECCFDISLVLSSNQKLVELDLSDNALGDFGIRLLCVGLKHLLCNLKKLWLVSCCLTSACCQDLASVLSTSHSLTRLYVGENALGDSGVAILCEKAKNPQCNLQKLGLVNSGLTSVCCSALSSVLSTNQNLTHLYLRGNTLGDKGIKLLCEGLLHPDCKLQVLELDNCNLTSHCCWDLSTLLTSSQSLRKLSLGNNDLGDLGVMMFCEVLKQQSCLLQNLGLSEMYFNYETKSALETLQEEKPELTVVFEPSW
Experimental: The NLRP3 inflammasome inhibitory activity of test compounds were evaluated CM the basis of the inhibitory activity of the IL-1β, production in THP1-Null cells (Product Number: thp-null, InvivoGen).
A solution containing a test compound (20 μL/well) was added to test compound-setting wells. […] The supernatant of the culture was cryonically stored (set at −20° C.) until measurement of IL-1β.
The amount of IL-1β in the culture supernatant was quantitated with AlphaLISA IL1 beta kit (Product Number: AL220C, Perkin Elmer). […] Inhibition rates of the test compound-setting wells were calculated on the basis of 100% for the blank-setting wells and 0% for the control-setting wells.

Take `CCOCC1CCN(S(=O)(=O)NC(=O)c2coc(Nc3nn(C(C)C)cc3C(C)C)n2)CCO1` (stereo not drawn) [Example 2-344]: the IC50 under setting [1] came out at 65 nM.

`Cc1ccc(C2(C#N)CC2)cc1Nc1nc(C(=O)NS(=O)(=O)N2CCCOCC2)co1` [Example 2-107] came in with an IC50 under setting [1] of 150 nM.

For `Cc1ccc(C(F)(F)F)cc1Nc1nc(C(=O)NS(=O)(=O)N2CCCC(c3ncccn3)[C@@H](C)C2)co1` (stereo partly drawn) [Example 2-312], the IC50 under setting [1] was 140 nM.

Consider `O=C(NS(=O)(=O)N1CCOCC1)c1csc(Nc2c3c(cc4c2CCC4)CCC3)n1` [Example 2-012], for which, under setting [1], the IC50 was 60 nM and < 30 nM.

Compound `COC1CN(S(=O)(=O)NC(=O)c2cnc(Nc3c4c(cc5c3CCC5)CCC4)o2)C1` [Example 17] had a half-maximal inhibitory concentration (IC50) under setting [2] of 830 nM.

`CCS(=O)(=O)N1CCN(S(=O)(=O)NC(=O)c2coc(Nc3cc(C)ccc3C)n2)CC(OC)C1` (racemic) [Example 2-252] yielded a half-inhibitory concentration (IC50) of 190 nM.

Under setting [2], `O=C(NS(=O)(=O)N1C[C@H]2COC[C@H]2C1)c1coc(Nc2c3c(c(F)c4c2CCC4)CCC3)n1` [Example 60] gave an IC50 of 130 nM.

In the case of `CN(C)C1CCN(S(=O)(=O)NC(=O)c2coc(Nc3c4c(c(F)c5c3CCC5)CCC4)n2)C1` (racemic) [Example 74], the IC50 stood at 180 nM.

The compound `CC(=O)N(C)C1CCCN(S(=O)(=O)NC(=O)c2coc(Nc3cc(C(F)(F)F)ccc3C)n2)CC1` (racemic) [Example 2-232] registered a half-maximal inhibitory concentration (IC50) of 30 nM.

Turning to `Cc1cc(Nc2nc(C(=O)NS(=O)(=O)N3CCOC(COC(C)C)CC3)co2)c(C)cc1F` (stereo not drawn) [Example 3-003], the IC50 under setting [2] was found to be 21 nM.

Regarding `Cc1cnn(C2CCCN(S(=O)(=O)NC(=O)c3coc(Nc4cc(C(F)(F)F)ccc4C)n3)CC2)c1` (stereo not drawn) [Example 2-298], the IC50 under setting [1] stood at 67 nM.

As for `COC1COCCN(S(=O)(=O)NC(=O)c2coc(Nc3cc(C(F)(F)F)ccc3C)n2)C1` (single isomer, unassigned) [Example 2-218], the IC50 under setting [1] came out at 72 nM.

Compound `CC(C)c1ccc(OC(F)(F)F)c(Nc2nc(C(=O)NS(=O)(=O)N3CCCOCC3)co2)c1` [Example 2-175] yielded an IC50 under setting [1] of 400 nM.

`CC(C)c1cn(C(C)C)nc1Nc1nc(C(=O)NS(=O)(=O)N(C)C)co1` [Example 2-117] registered an IC50 under setting [1] of 110 nM.

For `Cc1cn(C(F)F)nc1Nc1nc(C(=O)NS(=O)(=O)N2CCCOCC2)co1` [Example 2-209], the inhibition at 3 µM was 33%.

`CC1COCCN1S(=O)(=O)NC(=O)c1cnc(Nc2c3c(cc4c2CCC4)CCC3)o1` (racemic) [Example 5] yielded an IC50 of under 30 nM.

As to `O=C(NS(=O)(=O)N1CCOC2(COC2)C1)c1coc(Nc2c3c(c(Cl)c4c2CCC4)CCC3)n1` [Example 57], under setting [2], half-maximal inhibition (IC50) required 74 nM.

`Cc1cn(CC(C)C)nc1Nc1nc(C(=O)NS(=O)(=O)N2CCCOCC2)co1` [Example 2-189]: the inhibition at 3 µM was found to be 16%.

`CCS(=O)(=O)N1CCCN(S(=O)(=O)NC(=O)c2coc(Nc3cc(C(F)(F)F)ccc3C)n2)C(C)C1` (racemic) [Example 2-241] showed an IC50 of 37 nM.

In the case of `Cc1ccc(C(F)(F)F)cc1Nc1nc(C(=O)NS(=O)(=O)N2CCCN(S(=O)(=O)C3CC3)CC2)co1` [Example 2-103], half-maximal inhibition under setting [1] (IC50) required 20 nM.

For the compound `CS(=O)(=O)C1CCN(S(=O)(=O)NC(=O)c2coc(Nc3c4c(c(F)c5c3CCC5)CCC4)n2)CC1` [Example 58], under setting [2], the IC50 was found to be 39 nM.

In the case of `Cc1ccc(C(F)(F)F)cc1Nc1nc(C(=O)NS(=O)(=O)N2CCC(S(=O)(=O)NC(C)C)CC2)co1` [Example 2-007], the IC50 under setting [1] is under 30 nM.

Under setting [1], `Cc1ccc(C(F)(F)F)cc1Nc1nc(C(=O)NS(=O)(=O)N2CCc3nncn3CC2)co1` [Example 2-217] displayed a concentration for half-maximal inhibition (IC50) of under 3000 nM.

`CCC(=O)N1CCCN(S(=O)(=O)NC(=O)c2coc(Nc3cc(C(F)(F)F)ccc3C)n2)CC1` [Example 2-102]: the IC50 under setting [1] turned out to be 50 nM.

As for `CCCS(=O)(=O)C1CCCN(S(=O)(=O)NC(=O)c2coc(Nc3cc(C(F)(F)F)ccc3C)n2)CC1` (stereo not drawn) [Example 2-306], the half-inhibitory concentration (IC50) is 9.8 nM.

Turning to `O=C(NS(=O)(=O)N1CCC(O)C1)c1coc(Nc2c3c(c(F)c4c2CCC4)CCC3)n1` (racemic) [Example 52], the half-maximal inhibitory concentration (IC50) was found to be 32 nM.

Regarding `Cc1ccc(C(F)(F)F)cc1Nc1nc(C(=O)NS(=O)(=O)N2CCCC(O)CC2)co1` (racemic) [Example 2-156], it took 39 nM to reach half-maximal inhibition (IC50).

`CC(C)NS(=O)(=O)NC(=O)c1cnc(Nc2c3c(cc4c2CCC4)CCC3)o1` [Example 7] came in with an IC50 under setting [2] of 200 nM.

Compound `O=C(NS(=O)(=O)N1C[C@H]2COC[C@H]2C1)c1coc(Nc2c3c(c(Cl)c4c2CCC4)CCC3)n1` [Example 61] showed an IC50 under setting [2] of 170 nM.

With `CCc1nn(C(C)C)cc1Nc1nc(C(=O)NS(=O)(=O)N2CCCOCC2)co1` [Example 2-193], the inhibition at 3 µM was found to be 46%.

With `Cc1ccc(C(F)(F)F)cc1Nc1nc(C(=O)NS(=O)(=O)N2CCC(S(=O)(=O)N(C)C)CC2)co1` [Example 75], under setting [2], the half-inhibitory concentration (IC50) worked out at 32 nM.

As to `CC(C)C1COCCN1S(=O)(=O)NC(=O)c1cnc(Nc2c3c(cc4c2CCC4)CCC3)o1` (racemic) [Example 10], inhibition was half-maximal at 210 nM (IC50).

`CN(C1CCOC1)S(=O)(=O)NC(=O)c1cnc(Nc2c3c(cc4c2CCC4)CCC3)o1` (racemic) [Example 24] came in with an IC50 of 160 nM.

For `Cc1c(Nc2nc(C(=O)NS(=O)(=O)N3CCCOCC3)co2)c(C(C)C)nn1C(C)C` [Example 2-227], half-maximal inhibition under setting [1] (IC50) required 1500 nM.

Under setting [1], `CC(C)c1nn(C(C)C)cc1Nc1nc(C(=O)NS(=O)(=O)N(C)C)co1` [Example 2-089] returned an IC50 of 1200 nM.

`Cc1ccc(C(F)(F)F)nc1Nc1nc(C(=O)NS(=O)(=O)N(C)C)co1` [Example 2-087] gave a half-inhibitory concentration (IC50) under setting [1] of 550 nM.

Compound `CCc1ccc(C(F)(F)F)cc1Nc1nc(C(=O)NS(=O)(=O)N(C)C)co1` [Example 2-060] yielded an IC50 under setting [1] of 46 nM.

Under setting [2], `O=C(NS(=O)(=O)N1CCCCC1)c1cnc(Nc2c3c(cc4c2CCC4)CCC3)o1` [Example 3] displayed an IC50 of 91 nM.

As for `COC(=O)C1COCCN1S(=O)(=O)NC(=O)c1coc(Nc2c3c(c(Cl)c4c2CCC4)CCC3)n1` (racemic) [Example 72], the IC50 was found to be 310 nM.

On to `Cc1ccc(C(F)(F)F)cc1Nc1nc(C(=O)NS(=O)(=O)N2CCOCC(C(=O)N(C)C)C2)co1` (racemic) [Example 2-143], for which the IC50 worked out at 86 nM.

As for `CN(C)S(=O)(=O)NC(=O)c1coc(Nc2c3c(c(Cl)c4c2CCC4)CCC3)n1` [Example 28], the IC50 under setting [2] was determined as 120 nM.

For `Cc1ccc(C(F)(F)F)cc1Nc1nc(C(=O)NS(=O)(=O)N2CCCN(S(=O)(=O)CCC(F)(F)F)CC2)co1` [Example 2-130], the IC50 under setting [1] worked out at 20 nM.

`CCCS(=O)(=O)N1CCN(S(=O)(=O)NC(=O)c2coc(Nc3cc(C(F)(F)F)ccc3C)n2)CC(F)C1` (racemic) [Example 2-222] showed a half-inhibitory concentration (IC50) of 30 nM.

With `Cc1ccc(C2CC2)cc1Nc1nc(C(=O)NS(=O)(=O)N2CCC(O)C2)co1` (racemic) [Example 2-002], the half-inhibitory concentration (IC50) came to 160 nM.

Turning to `O=C(NS(=O)(=O)N1CCC2(COC2)C1)c1coc(Nc2c3c(c(Cl)c4c2CCC4)CCC3)n1` [Example 48], the inhibition at 30 µM was determined as 23%.

Turning to `CC(C)c1cccc(C(C)C)c1Nc1ncc(C(=O)NS(=O)(=O)N(C)C)o1` [Example 20], the inhibition at 30 µM was 48%.

Take `COCCN(C(C)C)S(=O)(=O)NC(=O)c1coc(Nc2c3c(c(Cl)c4c2CCC4)CCC3)n1` [Example 39]: under setting [2], half-maximal inhibition (IC50) was put at 220 nM.

Under setting [2], `CN(C)S(=O)(=O)NC(=O)c1cnc(Nc2c3c(c(F)c4c2CCC4)CCC3)o1` [Example 26] came in with a half-inhibitory concentration (IC50) of 130 nM.

On to `COCCOC[C@@H]1CCN(S(=O)(=O)NC(=O)c2coc(Nc3cc(C)c(F)cc3C)n2)CCO1` [Example 3-005, (S)-2-((4-fluoro-2,5-dimethylphenyl)amino)-N-((7-((2-methoxyethoxy)methyl)-1,4-oxazepan-4-yl)sulfonyl)oxazole-4-carboxamide], for which half-maximal inhibition under setting [2] (IC50) was put at 40 nM.

With `COCC1CN(S(=O)(=O)NC(=O)c2coc(Nc3cc(C(F)(F)F)ccc3C)n2)CCO1` (stereo not drawn) [Example 2-049], the half-maximal inhibitory concentration (IC50) under setting [1] amounted to 46 nM.

`CCCCS(=O)(=O)N1CCCN(S(=O)(=O)NC(=O)c2coc(Nc3cc(C)ccc3C)n2)CC1` [Example 2-203] gave an IC50 under setting [1] of 18 nM.

`Cc1ccc(C)c(Nc2nc(C(=O)NS(=O)(=O)N3CCCN(c4ncccn4)CC3)co2)c1` [Example 2-275]: under setting [1], the IC50 was found to be 160 nM.

On to `Cc1cnc(C(F)(F)F)cc1Nc1nc(C(=O)NS(=O)(=O)N(C)C)co1` [Example 2-074], for which the IC50 under setting [1] is 11000 nM.

Consider `O=C(NS(=O)(=O)N1CCCn2nccc21)c1coc(Nc2c3c(c(Cl)c4c2CCC4)CCC3)n1` [Example 46], for which the IC50 under setting [2] was determined as 350 nM.

`Cc1ccc(C(F)(F)F)cc1Nc1nc(C(=O)NS(=O)(=O)N2CCCC(C)(C(=O)N(C)C)CC2)co1` (racemic) [Example 2-259] returned an IC50 of 87 nM.

For the compound `O=C(NS(=O)(=O)N1CCCC1)c1coc(Nc2c3c(c(Cl)c4c2CCC4)CCC3)n1` [Example 34], the IC50 under setting [2] was determined as 48 nM.

Compound `Cc1ccc(C2(C#N)CC2)cc1Nc1nc(C(=O)NS(=O)(=O)N(C)C)co1` [Example 2-094] displayed an IC50 under setting [1] of 270 nM.

On to `CCCS(=O)(=O)N1CCCN(S(=O)(=O)NC(=O)c2coc(Nc3cn(C(C)C)nc3C(C)C)n2)CC1` [Example 2-160], for which, under setting [1], 170 nM corresponded to half-maximal inhibition (IC50).

In the case of `CS(=O)(=O)C1CCN(S(=O)(=O)NC(=O)c2coc(Nc3c4c(c(Cl)c5c3CCC5)CCC4)n2)C1` (racemic) [Example 47], the midpoint of inhibition, the IC50, lay at 420 nM.

As to `CCCS(=O)(=O)N1CCCN(S(=O)(=O)NC(=O)c2coc(Nc3cc(CC)ccc3C)n2)CC1` [Example 2-256], under setting [1], the midpoint of inhibition, the IC50, lay at 15 nM.

`Cc1ccc(C(F)(F)F)cc1Nc1nc(C(=O)NS(=O)(=O)N2CCCN(C(=O)C3CCOC3)CC2)co1` (racemic) [Example 2-216] came in with an IC50 of 180 nM.

In the case of `O=C(NS(=O)(=O)N1CCCC1)c1coc(Nc2c3c(c(F)c4c2CCC4)CCC3)n1` [Example 35], the IC50 under setting [2] was under 30 nM.

`Cc1ccc(C(F)(F)F)cc1Nc1nc(C(=O)NS(=O)(=O)N2CCCn3nccc3C2)co1` [Example 2-254] showed a concentration for half-maximal inhibition (IC50) under setting [1] of 64 nM.
